# Test results as given in paper PMC8219695 (Nature Communications, 2021).
# Where “and” joins values, the source holds several entries; their conditions need not be identical. Equal values may be shown once.
# What was measured:
# mDOR [1] = molecular target: T1, mDOR (Mus musculus, UniProt P32300); experiment: [125I]BNtxA radioligand competition binding, mouse DOR; conditions: mean ± SEM, n = 3; [125I]BNtxA; read-out: Ki ± SEM mDOR
# T1 construct: expressed in transfected cells
# hMOR = molecular target: T2, hMOR (Homo sapiens, UniProt P35372); experiment: cell-based
# T2 construct: expressed in transfected cells; plasmid a gift from Dr. Nevin Lambert
# mKOR = molecular target: T3, mKOR (Mus musculus, UniProt P33534); experiment: [125I]BNtxA radioligand competition binding, mouse KOR; conditions: mean ± SEM, n = 3; [125I]BNtxA; read-out: Ki ± SEM mKOR
# T3 construct: expressed in transfected cells; membranes
# mMOR [2] = molecular target: T4, mMOR (Mus musculus, UniProt P42866); experiment: CAMYEL BRET antagonism assay at mMOR (inhibition of DAMGO); type: cell-based; conditions: for Antagonist activity at mMOR, raw signal (single replicate values): source data of Fig 8a and Table 5, listed as C11-Br-7OH (24);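 as to Antagonist activity at mMOR, raw signal (single replicate values): BRET signal rises as cAMP falls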
# T4 construct: signal peptide (heterologous, not specified) (N); expressed in transfected cells; pcDNA3.1(+) construct made in house
# hDOR = hDOR (Homo sapiens, UniProt P41143); experiment: CAMYEL BRET cAMP agonist assay at hDOR; type: cell-based; conditions: for Agonist activity of 7OH analogs at hDOR: single replicate values, Supplementary Figure 7A
# mMOR [3] = molecular target: T4, mMOR; experiment: CAMYEL BRET cAMP agonist assay at mMOR; type: cell-based; conditions: mMOR; for cAMP %: single replicates, source data Fig 6b, listed as C11-Br-7OH (24)
# mDOR [4] = molecular target: T1, mDOR; experiment: CAMYEL BRET cAMP agonist assay at mDOR; type: cell-based; conditions: single replicate values, Supplementary Figure 7B
structure (smiles),measurement,setting,value
"CC[C@@H]1CN2CC[C@@]3(O)C(=Nc4cc(Br)cc(OC)c43)[C@@H]2C[C@@H]1/C(=C\OC)C(=O)OC [11-Br-7OH (24), 11-Br-7OH]",Ki,mDOR [1],57.7 ± 6.7 nM
same,IC50,hMOR,1970 nM
same,Ki,mKOR,81.1 ± 7.1 nM
same,IC50,mMOR [2],550 nM
same,"Antagonist activity at mMOR, raw signal (single replicate values)",mMOR [2]; Log[drug] (M) -5,0.01588 and 0.02679 and 0.02408 and 0.03029 and 0.008675 and 0.02853 and 0.02577 and 0.02856 and 0.04207
same,"Antagonist activity at mMOR, raw signal (single replicate values)",mMOR [2]; Log[drug] (M) -6,0.07568 and 0.07832 and 0.06492 and 0.08421 and 0.0634 and 0.06872 and 0.08325 and 0.0829 and 0.07977
same,"Antagonist activity at mMOR, raw signal (single replicate values)",mMOR [2]; Log[drug] (M) -7,0.1777 and 0.1753 and 0.1839 and 0.1921 and 0.1726 and 0.1908 and 0.1553 and 0.1528 and 0.1604
same,"Antagonist activity at mMOR, raw signal (single replicate values)",mMOR [2]; Log[drug] (M) -8,0.2079 and 0.2137 and 0.206 and 0.2077 and 0.2162 and 0.1891 and 0.1751 and 0.1625 and 0.1706
same,"Antagonist activity at mMOR, raw signal (single replicate values)",mMOR [2]; Log[drug] (M) -9,0.1949 and 0.206 and 0.225 and 0.1941 and 0.2008 and 0.2159 and 0.1687 and 0.1594 and 0.1786
same,"Antagonist activity at mMOR, raw signal (single replicate values)",mMOR [2]; Log[drug] (M) -10,0.1894 and 0.2034 and 0.2214 and 0.2024 and 0.209 and 0.1982 and 0.1754 and 0.1654 and 0.1797
same,"Antagonist activity at mMOR, raw signal (single replicate values)",mMOR [2]; Log[drug] (M) -11,0.2409 and 0.2089 (2×) and 0.2025 and 0.1938 and 0.2023 and 0.1798 and 0.1667 and 0.1739
same,Agonist activity of 7OH analogs at hDOR,hDOR; Log[drug] (M) -5,4.7 and 25.3039 and 6.573 and 24.0158 and 10.0458 and 10.1909 and 12.9945 and 10.3075
same,Agonist activity of 7OH analogs at hDOR,hDOR; Log[drug] (M) -6,13.1842 and 10.2252 and 8.595 and 5.73 and 12.7267 and 14.3479 and 6.336 and 13.8749
same,Agonist activity of 7OH analogs at hDOR,hDOR; Log[drug] (M) -7,14.5317 and -1.155 and 1.334 and 28.0039 and 13.2568 and 5.897 and 5.1203 and 15.4297
same,Agonist activity of 7OH analogs at hDOR,hDOR; Log[drug] (M) -8,10.6504 and 18.084 and 4.153 and 20.0173 and 1.0999 and 15.8027 and 12.7278 and 11.7823 and 20.1626
same,Agonist activity of 7OH analogs at hDOR,hDOR; Log[drug] (M) -9,19.553 and 11.3403 and 28.4089 and 9.179 and -1.427 and -6.158 and 5.452 and 0.7244 and 17.3106
same,Agonist activity of 7OH analogs at hDOR,hDOR; Log[drug] (M) -10,3.839 and 3.779 and 7.219 and -2.673 and 3.726 and -0.9121 and -0.9075 and -0.119 and 1.027
same,Agonist activity of 7OH analogs at hDOR,hDOR; Log[drug] (M) -11,6.722 and 21.7822 and 0.8452 and 0.831 and -3.07 and 2.24 and 15.2814 and 3.682 and 0.8607
same,Agonist activity of 7OH analogs at hDOR,hDOR; Log[drug] (M) -13,-12.8405 and 3.455 and 9.386 and 2.252 and 8.162 and 14.0199 and 6.2368 and 9.608 and 10.0864
same,Emax,"hDOR; hDOR cAMP BRET, positive control DPDPE",very low efficacy
same,cAMP %,mMOR [3]; Log[drug] (M) -5,9.013% and 6.73% and 3.065% and 5.631% and 1.057% and 0.04315% and 7.004% and 14.1806% and 4.634%
same,cAMP %,mMOR [3]; Log[drug] (M) -6,5.8044% and 1.851% and 7.958% and 11.2571% and 3.589% and -1.762% and 6.0175% and 2.324% and 0.676%
same,cAMP %,mMOR [3]; Log[drug] (M) -7,-3.894% and -5.88% and 9.775% and 0.4502% and 1.258% and -1.708% and 1.616% and 1.4183% and 0.1827%
same,cAMP %,mMOR [3]; Log[drug] (M) -8,1.549% and 0.05958% and 0.01199% and -1.248% and 2.618% and 1.046% and 3.634% and 0.478% and 3.5882%
same,cAMP %,mMOR [3]; Log[drug] (M) -9,13.8914% and 20.7075% and 0.6937% and 7.1213% and -0.7937% and 5.232% and 4.985% and -2.644% and 5.425%
same,cAMP %,mMOR [3]; Log[drug] (M) -10,10.1801% and 15.9014% and 8.011% and 8.742% and 7.948% and 6.092% and 2.318% and -3.2024% and 3.127%
same,cAMP %,mMOR [3]; Log[drug] (M) -11,14.2135% and 8.364% and 1.552% and 8.664% and 7.808% and 10.8013% and 0.4413% and -1.089% and 0.6474%
same,cAMP %,"mMOR [3]; Log[drug] (M) -13, cAMP inhibition as % of DAMGO",6.348% and 21.1377% and 5.87% and 7.068% and 6.954% and 15.1455% and 5.75% and 5.389% and 3.7452%
same,Emax,mMOR [3]; maximal inhibitory effect on cAMP levels relative to DAMGO,< 10%
same,Agonist activity of 7OH analogs at mDOR,mDOR [4]; Log[drug] (M) -5,13.8013 and 18.9976 and 33.2307 and 22.3286 and 13.395 and 16.9068 and 13.8361 and 11.2191 and 18.2655
same,Agonist activity of 7OH analogs at mDOR,mDOR [4]; Log[drug] (M) -6,28.5316 and 7.81 and 20.2665 and 20.4093 and 17.1261 and 17.3487 and 14.4976 and 7.195 and 12.5927
same,Agonist activity of 7OH analogs at mDOR,mDOR [4]; Log[drug] (M) -7,11.1893 and 13.4547 and 27.5656 and 14.54 and 12.7942 and 5.698 and 4.253 and 2.065 and 7.661
